What all share (test): NCI tumour cell line growth inhibition, 48 h
The subject of assay [1] is RXF 393 renal.
Assay [2] has as its system NCI-H460 lung.
The subject of assay [3] is NCI-H23 lung.
The subject of assay [4] is OVCAR-5 ovarian.
Assay [5] deals with SF-268 CNS.
For assay [6], the system named is SN12C renal.
Assay [7] has as its system HT29 colon.
For assay [8], the system named is UACC-257 melanoma.
The test system of assay [9] is SF-539 CNS.
Assay [10] has as its system A549 NSCLC.

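Test compounds were applied to cells in 96-well plates for 48 hours at 5 doses. GI50 is the concentration that inhibits growth by half. Definition used: TGI = concentration required for complete inhibition of growth.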 Some results are limits rather than exact numbers.

In the case of `O=c1c2c3c(sc2nc2n1N=C(c1ccc([N+](=O)[O-])cc1)CS2)CCCC3`, the TGI in [1], in assay [2], in [3], in [4], in [5] and in [6] was greater than 100 µM in each case. The TGI in assay [7], in assay [8], in assay [9] and in assay [10] was greater than 100 µM in each case.

On to `CCCCS(=O)CC(CO)NC(=O)/C=C/c1c(C)[nH]c(=O)[nH]c1=O` (stereo not drawn), for which the TGI in [1] came out at 51.3 µM; in [2], 17.2 µM; in assay [3], 44.6 µM; in assay [4], 89.8 µM; in assay [5], 20.8 µM; in assay [6] it was 49 µM. The TGI in [7] stood at 122 µM; in assay [8] it was 55 µM; in assay [9], 35.4 µM; in [10], 87.1 µM.

Consider `Nc1ccc(OCCCc2c(-c3ccccc3)nc(N)[nH]c2=O)cc1`, for which the TGI in assay [1], in [2], in [3], in assay [4], in [5] and in assay [6] was greater than 100 µM each time. In addition, the TGI in [7], in [8] and in assay [9] was greater than 100 µM in each case.

Regarding `O=C1CSC(C(N=Nc2ccc(Cl)cc2)c2nc3ccccc3[nH]2)=N1` (stereo not drawn), the TGI in [2], in [3], in assay [4], in assay [5], in assay [6] and in [7] was greater than 100 µM throughout. Further, the TGI in assay [8] is greater than 100 µM; in [9] it was 52.9 µM; in [10] it was greater than 100 µM.

With `CC1=C/C(=C2/N=C(N(C)C)SS2)C(C)=N1`, the TGI in assay [1], in assay [2], in [3], in assay [4], in assay [5] and in assay [6] was greater than 100 µM in each case. Further, the TGI in assay [7], in [8], in [9] and in [10] was greater than 100 µM throughout.

For the compound `Cc1cccc(C(=O)O)c1CC1NCCC2c3ccccc3NC12` (stereo not drawn), the TGI in assay [1], in assay [2], in assay [3], in [4], in [5] and in assay [6] was greater than 100 µM throughout. Further, the TGI in assay [7], in assay [8], in assay [9] and in assay [10] was greater than 100 µM throughout.

Turning to `Cc1nc2cccc([N+](=O)[O-])c2n1CCCN(C)C`, the TGI in [1], in assay [2], in [3], in [4], in [5] and in [6] was greater than 100 µM throughout. For the same compound, the TGI in assay [7], in [8] and in [10] was greater than 100 µM in each case.

`C[N+](C)(C)C(C1=CCCC1=O)c1ccccc1` (stereo not drawn): the TGI is 41.8 µM in [1]; 89.8 µM in assay [2]; greater than 100 µM in [3]; greater than 100 µM in assay [4]; 60.1 µM in assay [5]; 44 µM in [6]. The TGI is 56 µM in assay [7], 64.4 µM in assay [8], greater than 100 µM in assay [9] and greater than 100 µM in assay [10].

Turning to `CNc1nc2c(C)ccc3[nH]c(N(C)C)nc3c-2n1`, the TGI in assay [1], in [2], in [3], in [4], in assay [5] and in assay [6] was greater than 100 µM in each case. In addition, the TGI was greater than 100 µM in [7], greater than 100 µM in [8], 64.5 µM in [9] and greater than 100 µM in assay [10].

With `CN=C(NC)N(C)c1nc(=[N+](C)C)ss1`, the TGI in assay [1], in [2], in assay [3], in assay [4], in [5] and in assay [6] was greater than 100 µM throughout. The TGI in assay [7], in assay [8], in [9] and in assay [10] was greater than 100 µM throughout.

Take `Cc1cc2c(C(C)C)c(O)c(O)c(C=Nc3ccccc3)c2c(O)c1-c1c(C)cc2c(C(C)C)c(O)c(O)c(C=Nc3ccccc3)c2c1O`: the TGI in assay [1], in assay [2], in [4], in assay [5], in [6] and in [7] was greater than 100 µM in each case. The TGI in assay [9] and in assay [10] was greater than 100 µM in each case.

For `O=C1CCCN1CCCN=c1cc2n(-c3ccc(Cl)cc3)c3ccccc3nc-2cc1Nc1ccc(Cl)cc1`, the TGI in [1] was 11.3 µM; in assay [2], 22.1 µM; in assay [3], 25.1 µM; in [4], 37.3 µM; in [5], greater than 100 µM; in [6], 43.4 µM. The TGI came to 13 µM in assay [7], 24.7 µM in [8], 28.2 µM in assay [9] and 35.3 µM in [10].

On to `CCc1c(C)c2ccc(OCC(=O)N=Nc3c(O)[nH]c4ccccc34)c(C)c2oc1=O`, for which the GI50 is 1130 nM in assay [3], greater than 33300 nM in assay [4], greater than 33300 nM in assay [9] and greater than 33.3 µM in [10]. The TGI in [3], in [4], in [9] and in [10] was greater than 33.3 µM in each case.

Turning to `COC(=O)C1C(O)C(C)C(O)OC1C(C)C(O)C(C)/C=C\C=C(/C)C(=O)Nc1c(C)c(OC(C)=O)c2c(c1O)C(=O)C(C)=C1OCOC(/C(C)=C/C(C)=O)=C12` (stereo not drawn), the TGI in assay [1] turned out to be 24.8 µM; in assay [2] it was 26.5 µM; in assay [3] it was 27.8 µM; in assay [4], 25 µM; in [5] it was 33.1 µM; in assay [6], 21.5 µM. Further, the TGI is 26.5 µM in [7], 23.7 µM in [8], 23.7 µM in assay [9] and 35.3 µM in [10].

For `CC(C)[C@](O)(C(=O)OCC1=CCN2CC[C@@H](O)[C@@H]12)[C@H](C)O`, the TGI in [1], in assay [2], in [3], in assay [4], in assay [5] and in [6] was greater than 375 µM throughout. The TGI in assay [7], in assay [8], in assay [9] and in assay [10] was greater than 375 µM in each case.

Regarding `C[C@]12CCc3sc(-c4cccc(F)c4)nc3C1=CC[C@@H]1[C@@H]2CC[C@]2(C)C(=O)CC[C@@H]12`, the GI50 is 1410 nM in assay [1]; 2780 nM in assay [2]; 3540 nM in assay [3]; 2680 nM in assay [4]; 3.15 µM in assay [5]; 3.01 µM in assay [6]. In addition, the GI50 in assay [7] was 2690 nM; in assay [8], 6.12 µM; in [9], 1040 nM; in [10], 3.95 µM. Besides, the TGI was 2.94 µM in assay [1]; 8.27 µM in assay [2]; 33.5 µM in [3]; 18.5 µM in assay [4]; 18.9 µM in [5]; greater than 100 µM in assay [6]. For the same compound, the TGI in [7] was greater than 100 µM; in [8] it was greater than 100 µM; in assay [9], 2.48 µM; in assay [10], 31.5 µM.

On to `CCN(CC)CCNC(=O)c1nn(-c2ccc(Cl)cc2)c2c1CCc1cc(OC)ccc1-2`, for which the TGI in [1] was found to be 8.99 µM; in assay [2] it was 11.8 µM; in assay [3], 25.8 µM; in assay [4] it was 15 µM; in assay [5], 22.2 µM; in [6], 24.2 µM. Besides, the TGI was found to be 6.7 µM in assay [7], 3.57 µM in assay [8], 13.4 µM in assay [9] and 21.3 µM in assay [10].

Source of the values: PubChem BioAssay (NCI).
